Here are results for eight molecules from ChEMBL document CHEMBL1135961, “Synthesis and biological activity of 8beta-substituted hydrocodone indole and hydromorphone indole derivatives” (Bioorg Med Chem Lett, 2002).

The target in assay [1] is T1, Mu-type opioid receptor (Cavia porcellus, UniProt P97266). As to the kind of experiment: Binding affinity for mu opioid receptor by displacing DAMGO was determined in [35S]-GTP gamma-S binding assay; Inactive. The assay is classed as functional. (Binding of GTPγS marks nucleotide exchange on a G protein.)
The target in assay [2] is T2, Kappa-type opioid receptor (Cavia porcellus, UniProt P41144). Put plainly: Binding affinity for kappa opioid receptor by displacing U-69,593 was determined in [35S]-GTP gamma-S binding assay; Inactive. The assay is classed as functional.
For assay [3], the target named is Mu-type opioid receptor (Homo sapiens) (UniProt P35372). As to the kind of experiment: Selectivity determined for mu opioid receptor to that of delta opioid receptor.
Assay [4] has as its target T2, Kappa-type opioid receptor. Put plainly: Binding affinity for kappa opioid receptor by displacing U-69,593 was determined in [35S]GTP gamma-S binding assay. The assay is classed as functional.
Assay [5] concerns the target Mu-type opioid receptor (Homo sapiens) (UniProt P35372). Put plainly: Selectivity for mu to that of delta opioid receptor was determined in [35S]-GTP gamma-S binding assay.
Assay [6] has as its target T1, Mu-type opioid receptor. Put plainly: Binding affinity for mu opioid receptor by displacing DAMGO was determined in [35S]GTP gamma-S binding assay. Format: functional.

T2 sequence (P41144 whole entry): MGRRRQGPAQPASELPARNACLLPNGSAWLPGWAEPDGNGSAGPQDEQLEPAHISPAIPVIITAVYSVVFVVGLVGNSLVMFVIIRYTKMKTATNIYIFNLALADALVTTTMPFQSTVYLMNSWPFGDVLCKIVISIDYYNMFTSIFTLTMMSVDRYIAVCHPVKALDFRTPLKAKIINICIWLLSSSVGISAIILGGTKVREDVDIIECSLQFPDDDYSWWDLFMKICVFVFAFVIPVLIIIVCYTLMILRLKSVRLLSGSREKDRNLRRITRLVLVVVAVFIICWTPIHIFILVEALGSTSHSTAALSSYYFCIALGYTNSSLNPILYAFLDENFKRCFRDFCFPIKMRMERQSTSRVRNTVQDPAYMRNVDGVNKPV
Chain of Mu-type opioid receptor (Homo sapiens) (P35372 whole entry): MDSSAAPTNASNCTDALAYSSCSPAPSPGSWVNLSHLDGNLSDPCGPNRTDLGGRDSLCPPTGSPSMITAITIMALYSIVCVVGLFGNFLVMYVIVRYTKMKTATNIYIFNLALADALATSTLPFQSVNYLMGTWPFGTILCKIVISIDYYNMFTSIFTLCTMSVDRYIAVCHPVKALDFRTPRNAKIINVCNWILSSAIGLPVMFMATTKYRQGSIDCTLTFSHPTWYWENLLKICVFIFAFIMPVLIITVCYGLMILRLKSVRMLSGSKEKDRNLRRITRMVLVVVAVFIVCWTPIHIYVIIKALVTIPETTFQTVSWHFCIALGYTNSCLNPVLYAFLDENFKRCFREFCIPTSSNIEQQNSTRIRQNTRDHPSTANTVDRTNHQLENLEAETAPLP
T1 sequence (P97266 whole entry): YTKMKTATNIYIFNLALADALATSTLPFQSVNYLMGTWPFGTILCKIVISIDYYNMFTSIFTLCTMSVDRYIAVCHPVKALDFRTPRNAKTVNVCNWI

A word on the Ki: it is the equilibrium dissociation constant of an inhibitor or competing ligand from its target. Low readings indicate a stronger hold on the target, high ones a looser hold on the target. For the molecule `COc1ccc2c3c1O[C@H]1c4[nH]c5ccccc5c4CC4C(C2)N(C)CCC341` (some centres not stated), the Ki was above 600 nM at Mu-type opioid receptor [1] and above 350 nM in assay [2]. In addition, the Ratio in assay [3] is above 53.
For `C=CC(C)N1CCC23c4c5ccc(O)c4O[C@H]2c2[nH]c4ccccc4c2[C@H](C)C3C1C5` (some centres not stated), in assay [3], the Ratio is 120.
As to `CN1CC[C@]23c4c5ccc(O)c4O[C@H]2c2[nH]c4ccccc4c2C[C@H]3[C@H]1C5`, the figures for the Ki (in assay [4]; on Mu-type opioid receptor [6]) were 731 nM and 202 nM, respectively. The Ratio is 296 in assay [3] and 14 in assay [5].
In the case of `C[C@H]1c2c([nH]c3ccccc23)[C@@H]2Oc3c(O)ccc4c3C23CCN(C)C(C4)C13` (some centres not stated), the inhibitory constant (Ki) on Mu-type opioid receptor [1] was above 600 nM; in assay [4], 398 nM. Also, the Ratio in assay [3] came out at 322.
On to `C[C@H]1c2c([nH]c3ccccc23)[C@@H]2Oc3c(O)ccc4c3C23CCN(CC2CC2)C(C4)C13` (some centres not stated), for which the Ratio in assay [3] was determined as 29.
As for `CCCC[C@H]1c2c([nH]c3ccccc23)[C@@H]2Oc3c(OC)ccc4c3C23CCN(C)C(C4)C13` (some centres not stated), the values for the Ki (at Mu-type opioid receptor [1]; in assay [2]) were above 600 nM and above 350 nM, respectively. Moreover, the Ratio in assay [3] is above 12.
As for `CCCC[C@H]1c2c([nH]c3ccccc23)[C@@H]2Oc3c(O)ccc4c3C23CCN(C)C(C4)C13` (some centres not stated), the Ki in assay [4] was determined as 272 nM; on Mu-type opioid receptor [6], 561 nM. Besides, the Ratio came out at 50 in assay [3] and 12 in assay [5].
Consider `COc1ccc2c3c1O[C@H]1c4[nH]c5ccccc5c4[C@H](C)C4C(C2)N(C)CCC341` (some centres not stated), for which the results for the Ki (at Mu-type opioid receptor [1]; in assay [2]) were above 600 nM and above 350 nM, respectively. Moreover, the Ratio in assay [3] was above 177.
